The text below walks through data of US9193699B2, “Apoptosis inducing compounds” (INSTITUT NATIONAL DE LA SANTE ET DE LA RECHERCHE MEDICALE …, priority 2011, dated 2015).

Like-named read-outs stand apart in the source and are kept apart here.

The test system of assay [1] is Human breast tumor L226 cells. Kind of assay: Inhibition of tumor cell growth (alamar blue), L226. Type of assay: cell-based. The settings on record: 120 h, calculated on the basis of cell growth inhibition, day 5, alamar blue. On the procedure: (§1) All biological experiments (Examples 2 to 9) have been performed with recommended cell line specific culture medium. For SUM149 and L226, culture medium is supplemented with 10% Fetal Calf Serum. For HME-1 and MCF-10A, culture medium is supplemented with 5% Horse Serum.
Human breast tumor L226 cells (Inflammatory Breast Cancer (IBC) of ERB-B2 subtype) were plated in a 96 well plate at 3000 cells/100 μL at 37° C. in 5% CO2. Serial dilutions of drugs (compounds 1, 3 or 4) ranging from 20 μM to 300 nM were added at day 0 and day 3. The number of viable cells was determined in triplicate at day 5 by incubating 10 μL of the alamar blue staining solution for 2 hours at 37° C. (FIG. 3).
IC50 values of compounds 1-14 for the inhibition of SUM149 and L226 tumor cells growth were measured (according to the experimental procedure of Examples 2 and 3): […]

The subject of assay [2] is caspase-3 and caspase-7 in L226 cells. Kind of assay: Caspase 3/7 activation (Caspase-Glo 3/7) in L226 tumor cells. To be noted: Homo sapiens, R=RLU at 20 μM/RLU at 0 μM, 24 h, read-out: Caspase 3/7 activation R (RLU fold increase from untreated cells). Type of assay: cell-based. The method, then: Human breast tumor L226 cells were plated in a 96 well plate at 10000 cells/100 μL at 37° C. in 5% CO2. Serial dilutions of drugs (compounds 1, 3 or 4) ranging from 20 μM to 300 nM were added at day 0. Active caspase-3 and caspase-7 were measured in triplicate after 24 h treatment by incubating 50 μL of the Caspase-Glo 3/7 reagent for 60 min at 25° C. This reagent containing the proluminescent tetrapeptide sequence DEVD in a cell lysis buffer (Promega) (FIG. 7).
Caspase 3/7 activation in SUM149 and L226 tumor cells was measured.
(§2) The calculated values R correspond to Relative Luminescence Units (RLU) fold increase from untreated cells (R=RLU at 20 μM/RLU at 0 μM).

Assay [3] has as its system Human normal mammary epithelial MCF-10A cells. Put plainly: Effect on growth of normal cells (alamar blue), MCF-10A. Type of assay: cell-based. The settings on record: calculated on the basis of cell growth inhibition. On the procedure: as §1
Human normal mammary epithelial MCF-10A cells were plated in a 96 well plate at 3000 cells/100 μL at 37° C. in 5% CO2. Serial dilutions of drugs (compounds 1, 3 or 4) ranging from 20 μM to 300 nM were added at day 0 and day 3. The number of viable cells was determined in triplicate at day 5 by incubating 10 μL of the alamar blue staining solution for 2 hours at 37° C. (FIG. 5).
IC50 values of compounds 1-14 for the inhibition of MCF-10A and HME-1 normal cells growth were also measured (according to the experimental procedure of Examples 4 and 5): […]

The subject of assay [4] is Human breast tumor SUM149 cells. Kind of assay: Inhibition of tumor cell growth (alamar blue), SUM149. Type of assay: cell-based. The settings on record: 120 h. The method, then: as §1
Human breast tumor SUM149 cells (Inflammatory Breast Cancer (IBC) of basal subtype) were plated in a 96 well plate at 3000 cells/100 μL at 37° C. in 5% CO2. Compounds 1, 3, 4, 5, 6, 7, 8, 9, 10, 11, 12, 13, 14 at 10 μM were added at day 0 and day 3. The number of viable cells was determined in triplicate at day 5 by incubating 10 μL of the alamar blue staining solution for 2 hours at 37° C. (FIG. 1).
Human breast tumor SUM149 cells were plated in a 96 well plate at 3000 cells/100 μL at 37° C. in 5% CO2. Serial dilutions of drugs (compounds 1, 3 or 4) ranging from 20 μM to 300 nM were added at day 0 and day 3. The number of viable cells was determined in triplicate at day 5 by incubating 10 μL of the alamar blue staining solution for 2 hours at 37° C. (FIG. 2).
IC50 values of compounds 1-14 for the inhibition of SUM149 and L226 tumor cells growth were measured (according to the experimental procedure of Examples 2 and 3):
Human breast tumor SUM149 cells were plated in a 96 well plate at 3000 cells/100 μL at 37° C. in 5% CO2 in recommended medium containing 10% FCS or in synthetic medium without FCS. Serial dilutions of drug (compound 4) ranging from 10 μM to 0.16 μM were added at day 0 and day 3. The number of viable cells was determined in triplicate at day 5 by incubating 10 μL of the alamar blue staining solution for 2 hours at 37° C. (FIG. 11). The […] in recommended medium containing 10% FCS was measured at 2 μM, while it was measured at 0.6 μM without FCS.
(In general: Alamar Blue is a resazurin reagent that responds to reducing activity.)

Assay [5] has as its system tumors derived from MMTC-ErbB2/neu mice. Put plainly: TUNEL assay of tumor apoptosis in MMTV-ErB2/Neu mice. To be noted: 100 mg/kg for 30 days. In kind it is in vivo. On the procedure: DNA fragmentation in apoptotic cells was analyzed by the TUNEL assay (ApopTag detection kit, Millipore) as recommended by the manufacturer.
Briefly, 4 μm sections of paraffin-embedded fixed tissue from tumors derived from MMTC-ErbB2/neu mice treated with vehicle or with Compound 12, 4 or 8 (100 mg/kg) for 30 days, were deparaffined with successive histolemon and ethanol washes, then treated with 20 μg/mL proteinase K for 15 min at room temperature. Endogenous peroxidise was quenched with 3% hydrogen peroxide. […] Coloration was performed using the diaminobenzidine mixed substrate (Dako). Counterstaining was done with a solution of 1% methyl green for 5 min at room temperature. After distilled water and N-butanol washes, specimens were mounted in Pertex medium (CellPath). Observations were made using the Leica DMD108 digital microimaging device (Leica Microsystems GmbH).

Assay [6] concerns caspase-3 and caspase-7 in HME-1 cells. Kind of assay: Caspase 3/7 activation (Caspase-Glo 3/7) in HME-1 normal cells. Type of assay: cell-based. The settings on record: Homo sapiens, HME1, R=RLU at 20 μM/RLU at 0 μM, 24 h, read-out: Caspase 3/7 activation R (RLU fold increase from untreated cells). On the procedure: Human normal mammary epithelial HME-1 cells were plated in a 96 well plate at 10000 cells/100 μL at 37° C. in 5% CO2. Serial dilutions of drugs (compounds 1, 3 or 4) ranging from 20 μM to 300 nM were added at day 0. Active caspase-3 and caspase-7 were measured in triplicate after 24 h treatment by incubating 50 μL of the Caspase-Glo 3/7 reagent for 60 min at 25° C. This reagent containing the proluminescent tetrapeptide sequence DEVD in a cell lysis buffer (Promega) (FIG. 8).
as §2
Caspase 3/7 activation in MCF-10A and HME-1 normal cells was also measured.

[7] abbreviates: calculated on the basis of cell growth inhibition, day 5, alamar blue, read-out: IC50 for the inhibition of SUM149 tumor cells growth.

In general, IC50 refers to the concentration that inhibits the measured activity by half. In the case of `Cc1cc(C)c(C)c(S(=O)(=O)N2CCSC(C)(C)[C@@H]2C(=O)NO)c1C` [Compound 4, (3S)—N-hydroxy-4-[(2,3,5,6-tetramethylphenyl)sulfonyl]-2,2-dimethyl-3-thiomorpholine carboxamide], the IC50 in assay [1] is 2.5 µM; in assay [3] it was 20 µM; in assay [4] (setting [7]), 2.5 µM; in assay [4] (recommended medium containing 10% FCS, day 5, read-out: IC50 of SUM149 cell growth in recommended medium) it was 2 µM; in assay [4] (synthetic medium without FCS, day 5, read-out: IC50 of SUM149 cell growth without FCS) it was 0.6 µM. Besides, the values for the fold induction at 20 µM in assay [2] and in assay [6] were 7.4 and 1, respectively. Further, the “percentage of cells having TdT positive nuclei in tumors” value in assay [5] is listed as 50%.
In the case of `Cc1c(C)c(C)c(S(=O)(=O)N2CCSC(C)(C)[C@@H]2C(=O)NO)c(C)c1C` [Compound 12, (3S)—N-hydroxy-4-[(2,3,4,5,6-pentamethylphenyl)sulfonyl]-2,2-dimethyl-3-thiomorpholine carboxamide], the figures for the IC50 in assay [1], in assay [3] and in assay [4] (setting [7]) were 2 µM, 15 µM and 2.5 µM, respectively. Further, the fold induction at 20 µM was found to be 6.2 in assay [2] and 1.2 in assay [6]. Moreover, in assay [5], the “percentage of cells having TdT positive nuclei in tumors” value turned out to be 70%.
